Here are results for 27 compounds from patent publication US10383859B2, “Benzo[d]thiazole derivative or salt thereof, and pharmaceutical composition including same” (Yuhan Corporation, priority 2016, dated 2019).

Each structure is given as a SMILES string. pIC50: −log10 of the molar value.

The test system of the first assay is A549 cells. Description: Cell migration assay (24-well transwell, laminin). The format is cell-based, human. Particulars: Homo sapiens, A549, 6 h, laminin 10 μg/mL in lower well, test compounds 0.39˜100 μM, migrated cells counted, read-out: Inhibitory activity against cell migration. On the procedure:
Cell migration was measured with a 24-well transwell having a polycarbonate membrane (8.0 μm pore size, Costar) at the bottom of the upper chamber. Each lower well was treated with laminin (10 μg/mL) and test compounds in predetermined concentrations (0.39˜100 μM) along with a serum-free RPMI1640 medium. A549 cells (Korean Cell Line Bank) were suspended in a serum-free RPMI1640 medium at a concentration of 1×10^6 cells/mL and then the test compounds were added thereto at the indicated concentrations. Each resulting solution (100 μL) was added to the upper chamber. The cells were cultured at 37° C. for 6 hours in a CO2 incubator. The upper chamber was taken out and then the cells were fixed with PBS containing 70% methyl alcohol for 10 minutes, followed by washing with PBS twice. The cells were stained with hematoxylin (Sigma) for 10 minutes and then washed with distilled water. The non-migrated cells were removed from the upper portion of the polycarbonate membrane with a cotton swab. The membranes were excised and separated from the chamber, and then mounted to a slide using a gel mount reagent (Biomeda, USA). The migrated cells (attached to the lower face of the membrane) were counted at three randomly selected sites under a microscope (×20). The cell counting was performed with the Image J program. From the counted cell numbers, each IC50 value was calculated by non-linear regression curve fit using the “GraphPad Prism” program.
The cells are pulled by laminin residing in the lower chamber and then passed through the polycarbonate membrane, so as to attach to the lower face of the membrane.
On to `COc1ccc(CCN(Cc2ccc(C(=O)O)cc2)c2nc3cccc(F)c3s2)cc1` [Example 1, 4-({(7-fluorobenzo[d]thiazol-2-yl)[2-(4-methoxyphenyl)ethyl]amino}methyl)benzoic acid], for which the pIC50 was greater than 6.00.
As for `O=C(O)c1ccc(CN(CCc2ccccc2Cl)c2nc3cccc(F)c3s2)cc1` [Example 2, 4-(((2-chlorophenylethyl)(7-fluorobenzo[d]thiazol-2-yl)amino)methyl)benzoic acid], the pIC50 is greater than 6.00.
For `O=C(O)c1ccc(CN(CCc2cccc(F)c2)c2nc3cccc(F)c3s2)cc1` [Example 3, 4-({(7-fluorobenzo[d]thiazol-2-yl)[2-(3-fluorophenyl)ethyl]amino}methyl)benzoic acid], the pIC50 was less than 5.00.
As to `O=C(O)c1ccc(CN(CCc2ccc(Cl)cc2)c2nc3cccc(F)c3s2)cc1` [Example 4, 4-{[[2-(4-chlorophenyl)ethyl](7-fluorobenzo[d]thiazol-2-yl)amino]methyl}benzoic acid], the pIC50 was 5.00 to 6.00.
Turning to `O=C(O)c1ccc(CN(CCc2cccc(Cl)c2)c2nc3cccc(F)c3s2)cc1` [Example 5, 4-{[[2-(3-chlorophenyl)ethyl](7-fluorobenzo[d]thiazol-2-yl)amino]methyl}benzoic acid], the pIC50 was less than 5.00.
Turning to `Cc1ccc(CCN(Cc2ccc(C(=O)O)cc2)c2nc3cccc(F)c3s2)cc1` [Example 6, 4-(((7-fluorobenzo[d]thiazol-2-yl)(4-methylphenylethyl)amino)methyl)benzoic acid], the pIC50 was greater than 6.00.
With `O=C(O)c1ccc(CN(CCc2ccc(F)cc2)c2nc3cccc(F)c3s2)cc1` [Example 8, 4-({(7-fluorobenzo[d]thiazol-2-yl)[2-(4-fluorophenyl)ethyl]amino}methyl)benzoic acid], the pIC50 is less than 5.00.
Consider `CCOc1ccc(CCN(Cc2ccc(C(=O)O)cc2)c2nc3cccc(F)c3s2)cc1` [Example 9, 4-{[[2-(4-ethoxyphenyl)ethyl](7-fluorobenzo[d]thiazol-2-yl)amino]methyl}benzoic acid], for which the pIC50 was greater than 6.00.
Turning to `CCCOc1ccc(CCN(Cc2ccc(C(=O)O)cc2)c2nc3cccc(F)c3s2)cc1` [Example 10, 4-({(7-fluorobenzo[d]thiazol-2-yl)[2-(4-propoxyphenyl)ethyl]amino}methyl)benzoic acid], the pIC50 was 5.00 to 6.00.
The same measure, in the same setting: next, `CC(C)Oc1ccc(CCN(Cc2ccc(C(=O)O)cc2)c2nc3cccc(F)c3s2)cc1` [Example 11, 4-({(7-fluorobenzo[d]thiazol-2-yl)[2-(4-isopropoxyphenyl)ethyl]amino}methyl)benzoic acid]: 5.00 to 6.00.
As for `CSc1ccc(CCN(Cc2ccc(C(=O)O)cc2)c2nc3cccc(F)c3s2)cc1` [Example 12, 4-{[(7-fluorobenzo[d]thiazol-2-yl){2-[4-(methylsulfanyl)phenyl]ethyl}amino]methyl}benzoic acid], the pIC50 was greater than 6.00.
Same read-out and setting: next, `CSc1cccc(CCN(Cc2ccc(C(=O)O)cc2)c2nc3cccc(F)c3s2)c1` [Example 13, 4-{[(7-fluorobenzo[d]thiazol-2-yl){2-[3-(methylsulfanyl)phenyl]ethyl}amino]methyl}benzoic acid]: greater than 6.00; `COc1ccc(OC)c(CCN(Cc2ccc(C(=O)O)cc2)c2nc3cccc(F)c3s2)c1` [Example 14, 4-({[2-(2,5-dimethoxyphenyl)ethyl](7-fluorobenzo[d]thiazol-2-yl)amino}methyl)benzoic acid]: less than 5.00; `COc1ccc(CCN(Cc2ccc(C(=O)O)cc2)c2nc3cccc(F)c3s2)cc1OC` [Example 15, 4-({[2-(3,4-dimethoxyphenyl)ethyl](7-fluorobenzo[d]thiazol-2-yl)amino}methyl)benzoic acid]: greater than 6.00.
In the case of `COc1ccccc1CCN(Cc1ccc(C(=O)O)cc1)c1nc2cccc(F)c2s1` [Example 16, 4-({(7-fluorobenzo[d]thiazol-2-yl)[2-(2-methoxyphenyl)ethyl]amino}methyl)benzoic acid], the pIC50 was less than 5.00.
On to `Cc1cccc(CCN(Cc2ccc(C(=O)O)cc2)c2nc3cccc(F)c3s2)c1` [Example 17, 4-({(7-fluorobenzo[d]thiazol-2-yl)[2-(3-methylphenyl)ethyl]amino}methyl)benzoic acid], for which the pIC50 was less than 5.00.
As to `CC(C)COc1ccc(CCN(Cc2ccc(C(=O)O)cc2)c2nc3cccc(F)c3s2)cc1` [Example 18, 4-({(7-fluorobenzo[d]thiazol-2-yl)[2-(4-isobutoxyphenyl)ethyl]amino}methyl)benzoic acid], the pIC50 is 5.00 to 6.00.
In the case of `O=C(O)c1ccc(CN(CCc2ccc(OCC3CC3)cc2)c2nc3cccc(F)c3s2)cc1` [Example 19, 4-{[[2-(4-cyclopropylmethoxyphenyl)ethyl](7-fluorobenzo[d]thiazol-2-yl)amino]methyl}benzoic acid], the pIC50 was greater than 6.00.
Regarding `CNc1ccc(CCN(Cc2ccc(C(=O)O)cc2)c2nc3cccc(F)c3s2)cc1` [Example 20, 4-{[(7-fluorobenzo[d]thiazol-2-yl){2-[4-(methylamino)phenyl]ethyl}amino]methyl}benzoic acid], the pIC50 was greater than 6.00.
With `CN(C)c1ccc(CCN(Cc2ccc(C(=O)O)cc2)c2nc3cccc(F)c3s2)cc1` [Example 21, 4-{[{2-[4-(dimethylamino)phenyl]ethyl}(7-fluorobenzo[d]thiazol-2-yl)amino]methyl}benzoic acid], the pIC50 was greater than 6.00.
On the same count and under the same terms, the same measure for `O=C(O)c1ccc(CN(CCc2ccccc2)c2nc3cccc(F)c3s2)cc1` [Example 22, 4-{[(7-fluorobenzo[d]thiazol-2-yl)(2-phenylethyl)amino]methyl}benzoic acid]: 5.00 to 6.00; for `O=C(O)c1ccc(CN(CCc2ccc(OCC3CCCCC3)cc2)c2nc3cccc(F)c3s2)cc1` [Example 23, 4-{[[2-(4-cyclohexylmethoxyphenyl)ethyl]-(7-fluorobenzo[d]thiazol-2-yl)amino]methyl}benzoic acid]: less than 5.00; for `O=C(O)c1ccc(CN(CCc2ccc(OCC3CCC3)cc2)c2nc3cccc(F)c3s2)cc1` [Example 24, 4-{[[2-(4-cyclobutylmethoxyphenyl)ethyl]-(7-fluorobenzo[d]thiazol-2-yl)amino]methyl}benzoic acid]: 5.00 to 6.00.
On the same count and under the same terms, the same measure for `CCOc1ccc(CCN(Cc2ccc(C(=O)O)cc2)c2nc3cccc(F)c3s2)cc1OC` [Example 25, 4-({[2-(4-ethoxy-3-methoxyphenyl)ethyl](7-fluorobenzo[d]thiazol-2-yl)amino}methyl)benzoic acid]: less than 5.00.
Take `COc1ccc(CCN(Cc2ccc(C(=O)O)cc2)c2nc3cccc(F)c3s2)c(F)c1` [Example 26, 4-({(7-fluorobenzo[d]thiazol-2-yl)[2-(2-fluoro-4-methoxyphenyl)ethyl]amino}methyl)benzoic acid]: the pIC50 was greater than 6.00.
With `COc1ccc(CCN(Cc2ccc(C(=O)O)cc2)c2nc3cccc(F)c3s2)c(OC)c1` [Example 27, 4-({[2-(2,4-dimethoxyphenyl)ethyl](7-fluorobenzo[d]thiazol-2-yl)amino}methyl)benzoic acid], the pIC50 was 5.00 to 6.00.

Staying with this assay, now noted: laminin 10 μg/mL in lower well, test compounds 0.39˜100 μM, 6 hours, migrated cells counted, read-out: Inhibitory activity against cell migration.
Turning to `COc1cccc(CCN(Cc2ccc(C(=O)O)cc2)c2nc3cccc(F)c3s2)c1` [Example 7, 4-({(7-fluorobenzo[d]thiazol-2-yl)[2-(3-methoxyphenyl)ethyl]amino}methyl)benzoic acid], the pIC50 was 5.00 to 6.00.
